What all share (test): Glasshouse assay for herbicidal activity (pre- and post-emergence), percentage phytotoxicity
Holding throughout (format): in vivo

Assay [1] has as its system Alopecurus myosuroides (ALOMY). Particulars: Alopecurus myosuroides. An outline of the steps: (§1)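 Pot-grown plants treated one day after sowing (pre-emergence) or at about 12 days (post-emergence); glasshouse at 24/18° C (warm) or 20/16° C (cool species) day/night, 16 h light, 65% humidity. Visual % phytotoxicity (0 = none, 100 = total damage) scored at 15 DAA post or 20 DAA pre.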

For the next assay, the system named is Avena fatua (AVEFA). Particulars: Avena fatua. Put shortly: as §1
In assay [2] the test system is Echinochloa crus-galli (ECHCG). Particulars: Echinochloa crus-galli. Put shortly: as §1
The test system of a further assay is Lolium perenne (LOLPE). Particulars: Lolium perenne. Put shortly: as §1
The mark [3] stands for this setting: post-emergence, 360 h, Rate 250 g/ha, post-emergence, visual assessment 15 DAA, 100%=total damage, 0%=no damage, read-out: Post-emergence herbicidal activity (percentage phytotoxicity) ALOMY POST.
[4] abbreviates: pre-emergence, 480 h, Rate 250 g/ha, pre-emergence, visual assessment 20 DAA, 100%=total damage, 0%=no damage, read-out: Pre-emergence herbicidal activity (percentage phytotoxicity) ALOMY PRE.
Setting [5] is: post-emergence, 360 h, Rate 250 g/ha, post-emergence, visual assessment 15 DAA, 100%=total damage, 0%=no damage, read-out: Post-emergence herbicidal activity (percentage phytotoxicity) AVEFA POST.
The mark [6] stands for this setting: pre-emergence, 480 h, Rate 250 g/ha, pre-emergence, visual assessment 20 DAA, 100%=total damage, 0%=no damage, read-out: Pre-emergence herbicidal activity (percentage phytotoxicity) AVEFA PRE.
[7] abbreviates: post-emergence, 360 h, Rate 250 g/ha, post-emergence, visual assessment 15 DAA, 100%=total damage, 0%=no damage, read-out: Post-emergence herbicidal activity (percentage phytotoxicity) ECHCG POST.
[8] abbreviates: pre-emergence, 480 h, Rate 250 g/ha, pre-emergence, visual assessment 20 DAA, 100%=total damage, 0%=no damage, read-out: Pre-emergence herbicidal activity (percentage phytotoxicity) ECHCG PRE.
Setting [9] is: post-emergence, 360 h, Rate 250 g/ha, post-emergence, visual assessment 15 DAA, 100%=total damage, 0%=no damage, read-out: Post-emergence herbicidal activity (percentage phytotoxicity) LOLPE POST.
The mark [10] stands for this setting: pre-emergence, 480 h, Rate 250 g/ha, pre-emergence, visual assessment 20 DAA, 100%=total damage, 0%=no damage, read-out: Pre-emergence herbicidal activity (percentage phytotoxicity) LOLPE PRE.
Where [11] appears, read: post-emergence, 360 h, POST-emergence, rate 250 g/ha, visual score 15 DAA (100%=total damage, 0%=no damage), read-out: Post-emergence herbicidal activity (percentage phytotoxicity) ALOMY POST.
[12] abbreviates: pre-emergence, 480 h, PRE-emergence, rate 250 g/ha, visual score 20 DAA (100%=total damage, 0%=no damage), read-out: Pre-emergence herbicidal activity (percentage phytotoxicity) ALOMY PRE.
The mark [13] stands for this setting: post-emergence, 360 h, POST-emergence, rate 250 g/ha, visual score 15 DAA (100%=total damage, 0%=no damage), read-out: Post-emergence herbicidal activity (percentage phytotoxicity) AVEFA POST.
[14] abbreviates: pre-emergence, 480 h, PRE-emergence, rate 250 g/ha, visual score 20 DAA (100%=total damage, 0%=no damage), read-out: Pre-emergence herbicidal activity (percentage phytotoxicity) AVEFA PRE.
[15] abbreviates: post-emergence, 360 h, POST-emergence, rate 250 g/ha, visual score 15 DAA (100%=total damage, 0%=no damage), read-out: Post-emergence herbicidal activity (percentage phytotoxicity) ECHCG POST.
The mark [16] stands for this setting: pre-emergence, 480 h, PRE-emergence, rate 250 g/ha, visual score 20 DAA (100%=total damage, 0%=no damage), read-out: Pre-emergence herbicidal activity (percentage phytotoxicity) ECHCG PRE.
Setting [17] is: post-emergence, 360 h, POST-emergence, rate 250 g/ha, visual score 15 DAA (100%=total damage, 0%=no damage), read-out: Post-emergence herbicidal activity (percentage phytotoxicity) LOLPE POST.
Setting [18] is: pre-emergence, 480 h, PRE-emergence, rate 250 g/ha, visual score 20 DAA (100%=total damage, 0%=no damage), read-out: Pre-emergence herbicidal activity (percentage phytotoxicity) LOLPE PRE.
Where [19] appears, read: post-emergence, 360 h, Rate 250 g/ha, post-emergence, assessed visually 15 DAA, 100%=total damage, 0%=no damage, read-out: Post-emergence herbicidal activity (percentage phytotoxicity) ALOMY POST.
The mark [20] stands for this setting: pre-emergence, 480 h, Rate 250 g/ha, pre-emergence, assessed visually 20 DAA, 100%=total damage, 0%=no damage, read-out: Pre-emergence herbicidal activity (percentage phytotoxicity) ALOMY PRE.
[21] abbreviates: post-emergence, 360 h, Rate 250 g/ha, post-emergence, assessed visually 15 DAA, 100%=total damage, 0%=no damage, read-out: Post-emergence herbicidal activity (percentage phytotoxicity) AVEFA POST.
Where [22] appears, read: pre-emergence, 480 h, Rate 250 g/ha, pre-emergence, assessed visually 20 DAA, 100%=total damage, 0%=no damage, read-out: Pre-emergence herbicidal activity (percentage phytotoxicity) AVEFA PRE.
The mark [23] stands for this setting: post-emergence, 360 h, Rate 250 g/ha, post-emergence, assessed visually 15 DAA, 100%=total damage, 0%=no damage, read-out: Post-emergence herbicidal activity (percentage phytotoxicity) ECHCG POST.
Setting [24] is: pre-emergence, 480 h, Rate 250 g/ha, pre-emergence, assessed visually 20 DAA, 100%=total damage, 0%=no damage, read-out: Pre-emergence herbicidal activity (percentage phytotoxicity) ECHCG PRE.
The mark [25] stands for this setting: post-emergence, 360 h, Rate 250 g/ha, post-emergence, assessed visually 15 DAA, 100%=total damage, 0%=no damage, read-out: Post-emergence herbicidal activity (percentage phytotoxicity) LOLPE POST.
Setting [26] is: pre-emergence, 480 h, Rate 250 g/ha, pre-emergence, assessed visually 20 DAA, 100%=total damage, 0%=no damage, read-out: Pre-emergence herbicidal activity (percentage phytotoxicity) LOLPE PRE.
Setting [27] is: post-emergence, 360 h, 250 g/ha, post-emergence, 15 DAA, visual assessment (100%=total damage, 0%=no damage), read-out: Post-emergence herbicidal activity (percentage phytotoxicity) ALOMY POST.
Where [28] appears, read: pre-emergence, 480 h, 250 g/ha, pre-emergence, 20 DAA, visual assessment (100%=total damage, 0%=no damage), read-out: Pre-emergence herbicidal activity (percentage phytotoxicity) ALOMY PRE.
Where [29] appears, read: post-emergence, 360 h, 250 g/ha, post-emergence, 15 DAA, visual assessment (100%=total damage, 0%=no damage), read-out: Post-emergence herbicidal activity (percentage phytotoxicity) AVEFA POST.
Setting [30] is: pre-emergence, 480 h, 250 g/ha, pre-emergence, 20 DAA, visual assessment (100%=total damage, 0%=no damage), read-out: Pre-emergence herbicidal activity (percentage phytotoxicity) AVEFA PRE.
[31] abbreviates: post-emergence, 360 h, 250 g/ha, post-emergence, 15 DAA, visual assessment (100%=total damage, 0%=no damage), read-out: Post-emergence herbicidal activity (percentage phytotoxicity) ECHCG POST.
Where [32] appears, read: pre-emergence, 480 h, 250 g/ha, pre-emergence, 20 DAA, visual assessment (100%=total damage, 0%=no damage), read-out: Pre-emergence herbicidal activity (percentage phytotoxicity) ECHCG PRE.
Setting [33] is: post-emergence, 360 h, 250 g/ha, post-emergence, 15 DAA, visual assessment (100%=total damage, 0%=no damage), read-out: Post-emergence herbicidal activity (percentage phytotoxicity) LOLPE POST.
The mark [34] stands for this setting: pre-emergence, 480 h, 250 g/ha, pre-emergence, 20 DAA, visual assessment (100%=total damage, 0%=no damage), read-out: Pre-emergence herbicidal activity (percentage phytotoxicity) LOLPE PRE.

The structures appear in SMILES notation. Like-named read-outs stand apart in the source and are kept apart here.

Take `Cc1cc(-c2ncc(Cl)cn2)cc(C)c1C1C(=O)CC(CC(=O)NCc2cccc(F)c2)C1=O` (stereo not drawn) [Compound B337]: the pest or weed control at 250 g/ha in assay [1] (setting [3]) was 100%; in assay [1] (setting [4]) it was 90%; in the assay on Avena fatua (AVEFA) (setting [5]) it was 100%; with Avena fatua (AVEFA) (setting [6]), 90%; in assay [2] (setting [7]), 100%; in assay [2] (setting [8]), 90%. Besides, the pest or weed control at 250 g/ha amounted to 100% in the assay on Lolium perenne (LOLPE) (setting [9]) and 90% in the assay with Lolium perenne (LOLPE) (setting [10]).

For `C/C=C/c1cc(C)c(C2C(=O)CC(CC(=O)NC(C)C)C2=O)c(C)c1` (stereo not drawn) [Compound B245], the pest or weed control at 250 g/ha was 100% in assay [1] (setting [11]); 100% in assay [1] (setting [12]); 100% with Avena fatua (AVEFA) (setting [13]); 90% in the assay with Avena fatua (AVEFA) (setting [14]); 100% in assay [2] (setting [15]); 90% in assay [2] (setting [16]). In addition, the pest or weed control at 250 g/ha in the assay on Lolium perenne (LOLPE) (setting [17]) was 100%; with Lolium perenne (LOLPE) (setting [18]) it was 90%.

As for `COCCNC(=O)CC1CC(=O)C(c2c(C)cc(-c3ncc(Cl)cc3F)cc2C)C1=O` (stereo not drawn) [Compound A47], the pest or weed control at 250 g/ha (in assay [1] (setting [19]); in assay [1] (setting [20]); with Avena fatua (AVEFA) (setting [21]); with Avena fatua (AVEFA) (setting [22]); in assay [2] (setting [23]); in assay [2] (setting [24])) was 100% throughout. Further, the pest or weed control at 250 g/ha with Lolium perenne (LOLPE) (setting [25]) and with Lolium perenne (LOLPE) (setting [26]) was 100% throughout.

Consider `Cc1cc(-c2ncc(F)cn2)cc(C)c1C1C(=O)CC(CC(=O)NC(C)(C)C)C1=O` (stereo not drawn) [Compound B5], for which the pest or weed control at 250 g/ha in assay [1] (setting [27]) turned out to be 100%; in assay [1] (setting [28]), 100%; with Avena fatua (AVEFA) (setting [29]), 100%; in the assay with Avena fatua (AVEFA) (setting [30]) it was 90%; in assay [2] (setting [31]), 100%; in assay [2] (setting [32]) it was 100%. Also, the pest or weed control at 250 g/ha in the assay on Lolium perenne (LOLPE) (setting [33]) turned out to be 90%; with Lolium perenne (LOLPE) (setting [34]), 100%.

For the compound `C/C=C/c1cc(C)c(C2C(=O)CC(CC(N)=O)C2=O)c(CC)c1` (stereo not drawn) [Compound B153], the pest or weed control at 250 g/ha in assay [1] (setting [27]) is 100%; in assay [1] (setting [28]), 90%; with Avena fatua (AVEFA) (setting [29]), 100%; in the assay with Avena fatua (AVEFA) (setting [30]), 70%; in assay [2] (setting [31]), 100%; in assay [2] (setting [32]), 90%. Further, the pest or weed control at 250 g/ha in the assay on Lolium perenne (LOLPE) (setting [33]) came to 100%; in the assay with Lolium perenne (LOLPE) (setting [34]), 80%.

Regarding `Cc1cc(C)c(C2=C(OC(=O)C(C)(C)C)CC(CC(=O)NC3(C)COC3)C2=O)c(C)c1` (stereo not drawn) [Compound P15], the pest or weed control at 250 g/ha in assay [1] (setting [3]) stood at 90%; in assay [1] (setting [4]), 70%; in the assay with Avena fatua (AVEFA) (setting [5]), 80%; in the assay on Avena fatua (AVEFA) (setting [6]) it was 40%; in assay [2] (setting [7]) it was 80%; in assay [2] (setting [8]) it was 100%. Further, the pest or weed control at 250 g/ha in the assay on Lolium perenne (LOLPE) (setting [9]) and in the assay with Lolium perenne (LOLPE) (setting [10]) was 80% in each case.

For the compound `C#CCN(C)C(=O)CC1CC(=O)C(c2c(C)cc(-c3ncc(F)cn3)cc2C)C1=O` (stereo not drawn) [Compound B334], the pest or weed control at 250 g/ha (in assay [1] (setting [3]); in assay [1] (setting [4]); in the assay with Avena fatua (AVEFA) (setting [5]); with Avena fatua (AVEFA) (setting [6]); in assay [2] (setting [7]); in assay [2] (setting [8])) was 100% throughout. For the same compound, the pest or weed control at 250 g/ha in the assay with Lolium perenne (LOLPE) (setting [9]) came to 90%; in the assay on Lolium perenne (LOLPE) (setting [10]), 100%.

As for `CC#Cc1cc(C)c(C2C(=O)CC(CC(=O)NCc3cccc(Cl)c3)C2=O)c(C)c1` (stereo not drawn) [Compound B182], the pest or weed control at 250 g/ha is 100% in assay [1] (setting [11]); 100% in assay [1] (setting [12]); 100% in the assay with Avena fatua (AVEFA) (setting [13]); 90% in the assay on Avena fatua (AVEFA) (setting [14]); 100% in assay [2] (setting [15]); 100% in assay [2] (setting [16]). The pest or weed control at 250 g/ha with Lolium perenne (LOLPE) (setting [17]) and in the assay on Lolium perenne (LOLPE) (setting [18]) was 100% in each case.

Regarding `C#Cc1cc(C)c(C2C(=O)CC(CC(=O)NC(C)CC)C2=O)c(C)c1` (stereo not drawn) [Compound A9, 2-[3-(4-ethynyl-2,6-dimethyl-phenyl)-2,4-dioxo-cyclopentyl]-N-sec-butyl-acetamide], the pest or weed control at 250 g/ha in assay [1] (setting [19]) was found to be 80%; in assay [1] (setting [20]), 90%; in the assay on Avena fatua (AVEFA) (setting [21]) it was 100%; in the assay with Avena fatua (AVEFA) (setting [22]) it was 90%; in assay [2] (setting [23]), 90%; in assay [2] (setting [24]), 100%. In addition, the pest or weed control at 250 g/ha in the assay on Lolium perenne (LOLPE) (setting [25]) turned out to be 80%; in the assay with Lolium perenne (LOLPE) (setting [26]) it was 90%.
